Experiments:
Rat Adjuvant Arthritis = assay: Action Against Rat Adjuvant Arthritis (paw swelling suppression); type: in vivo, rat (male Lewis); settings: 3.13 mg/kg once daily for 14 days, suspension in 0.5% methyl cellulose; left hind paw volume at day 14; N=6; **: p < 0.05 vs control (Dunnett's test)
[1] = Stability Against Metabolism by Liver Microsome; type: in vitro ADME; settings: dog liver microsome, NADPH-producing system, phosphate buffer pH 7.4, 37° C.; n=2, mean
Protocol: Stability Against Metabolism by Liver Microsome:
A dog liver microsome was prepared by a standard method. In a phosphate buffer (pH 7.4), a test substance, a liver microsome and NADPH-producing system [0.5 mM, β-NADP (NADP: nicotinamide adenine dinucleotide phosphate), 1 mM magnesium chloride, 5 mM glucose-6-phosphate, 150units/ml glucose-6-phosphate dehydrogenase (each as final concentration in reaction system)] were mixed and incubated at 37° C. The concentration of the test substance after the discontinuation of the reaction was determined by high pressure liquid chromatography to obtain % residue (n=2, mean).

Residue (%) [1] | SMILES | Swelling suppression rate (%) (Rat Adjuvant Arthritis)
87.8% | COc1ccc(-c2c(Cl)c(CN3C(=O)CCC3=O)nc3sc4c(c23)CCNC4)cc1OC [Example 2, 3-chloro-4-(3,4-dimethoxyphenyl)-5,6,7,8-tetrahydro-2-(succinimidomethyl)thieno[2,3-b:5,4-c']dipyridine] | 92%
94.1% | CCOc1ccc(-c2c(Cl)c(CN3C(=O)CCC3=O)nc3sc4c(c23)CCNC4)cc1 [Example 11, 3-chloro-4-(4-ethoxyphenyl)-5,6,7,8-tetrahydro-2-(succinimidomethyl)thieno[2,3-b:5,4-c']dipyridine] | 98%
96.3% | O=C1CCC(=O)N1Cc1nc2sc3c(c2c(-c2ccc(O)cc2)c1Cl)CCNC3 [Example 15, 3-chloro-4-(4-hydroxyphenyl)-5,6,7,8-tetrahydro-2-(succinimidomethyl)thieno[2,3-b:5,4-c']dipyridine] | –

Further lines, the molecule ahead of its results:

SMILES | Residue (%) [1] | Swelling suppression rate (%) (Rat Adjuvant Arthritis)
COc1ccc(-c2c(Cl)c(CN3C(=O)CCC3=O)nc3sc4c(c23)CCNC4)cc1 [Example 1, 3-chloro-5,6,7,8-tetrahydro-4-(4-methoxyphenyl)-2-(succinimidomethyl)thieno[2,3-b:5,4-c']dipyridine] | 90.5% | 94%
COc1ccc(-c2c(Br)c(CN3C(=O)CCC3=O)nc3sc4c(c23)CCNC4)cc1 [Example 4, 3-bromo-5,6,7,8-tetrahydro-4-(4-methoxyphenyl)-2-(succinimidomethyl)thieno[2,3-b:5,4-c']dipyridine] | – | 85%
COc1ccc(-c2c(Cl)c(CN3C(=O)CCC3=O)nc3sc4c(c23)CCN(C(C)=O)C4)cc1OC [Example 18, 7-acetyl-3-chloro-4-(3,4-dimethoxyphenyl)-5,6,7,8-tetrahydro-2-(succinimidomethyl)thieno[2,3-b:5,4-c']dipyridine] | – | 92%
COc1cc(-c2c(Cl)c(CN3C(=O)CCC3=O)nc3sc4c(c23)CCN(C(C)=O)C4)ccc1O [Example 22, 7-acetyl-3-chloro-5,6,7,8-tetrahydro-4-(4-hydroxy-3-methoxyphenyl)-2-(succinimidomethyl)thieno[2,3-b:5,4-c']dipyridine] | – | 75%
